Converted amounts (≈) assume the structure as drawn.
What was measured:
Test in all cases: In vitro antibacterial activity, microbroth dilution method (CLSI method)
Format in all cases: cell-based
H. influenzae Rd = conditions: bacteria symbol B = H. influenzae Rd
Method: (§1) In vitro antibacterial activities of the compounds of the present invention against various test bacteria were measured according to the microbroth dilution method (CLSI method). The exemplary compounds shown in Table 9 and the comparative agent 1, clarithromycin, were used as test substances. The results are shown as MIC values (minimum inhibitory concentration, μg/ml) in Table 9. [table]

H. influenzae ATCC 43095 = conditions: bacteria symbol A = H. influenzae ATCC 43095
Method: as §1

S. pneumoniae ATCC 49619 = conditions: bacteria symbol C = S. pneumoniae ATCC 49619
Method: as §1

[1] = system: S. pneumoniae ATCC 700904; conditions: bacteria symbol D = S. pneumoniae ATCC 700904
Method: as §1

Row | MIC values (minimum inhibitory concentration) (H. influenzae Rd) [µg/mL] | MIC values (minimum inhibitory concentration) (H. influenzae ATCC 43095) [µg/mL] | MIC values (minimum inhibitory concentration) (S. pneumoniae ATCC 49619) [µg/mL] | MIC values (minimum inhibitory concentration) [1] [µg/mL] | MIC (H. influenzae Rd; Haemophilus influenzae, read-out: MIC values (minimum inhibitory concentration)) [µg/mL] | MIC (H. influenzae ATCC 43095; Haemophilus influenzae, ATCC43095, read-out: MIC values (minimum inhibitory concentration)) [µg/mL] | MIC (S. pneumoniae ATCC 49619; Streptococcus pneumoniae, ATCC49619, read-out: MIC values (minimum inhibitory concentration)) [µg/mL] | MIC ([1]; Streptococcus pneumoniae, ATCC700904, read-out: MIC values (minimum inhibitory concentration)) [µg/mL] | Compound
1 | 4 (≈ 4.2 µM) | 4 (≈ 4.2 µM) | 0.016 (≈ 0.0168 µM) | 0.06 (≈ 0.0631 µM) | – | – | – | – | CCN(CC(C)NCC1(O)C(C)OC(OC2C(C)C(=O)OC3CN(C3)C(C)C(O)C(C)CC(C)(OC)C(OC3OC(C)CC(N(C)C)C3O)C2C)CC1(C)OC)C(C)(C)c1ccccc1OC (stereo not shown) [Example 84]
2 | 8 (≈ 8.68 µM) | 4 (≈ 4.34 µM) | 0.06 (≈ 0.0651 µM) | 1 (≈ 1.09 µM) | – | – | – | – | COc1cccc2c1CN(CCN(C)CC1(O)C(C)OC(OC3C(C)C(=O)OC4CN(C4)C(C)C(O)C(C)CC(C)(OC)C(OC4OC(C)CC(N(C)C)C4O)C3C)CC1(C)OC)CC2 (stereo not shown) [Example 132]
3 | 2 (≈ 2.11 µM) | 2 (≈ 2.11 µM) | 0.03 (≈ 0.0316 µM) | 0.12 (≈ 0.126 µM) | – | – | – | – | COc1ccccc1C(C)(C)N(C)CC1CN(CC2(O)C(C)OC(OC3C(C)C(=O)OC4CN(C4)C(C)C(O)C(C)CC(C)(OC)C(OC4OC(C)CC(N(C)C)C4O)C3C)CC2(C)OC)C1 (stereo not shown) [Example 162]
4 | 2 (≈ 2.13 µM) | 2 (≈ 2.13 µM) | 0.03 (≈ 0.032 µM) | 0.12 (≈ 0.128 µM) | – | – | – | – | COc1ccccc1C(C)(C)N(C)CCN(C)CC1(O)C(C)OC(OC2C(C)C(=O)OC3CN(C3)C(C)C(O)C(C)CC(C)(OC)C(OC3OC(C)CC(N(C)C)C3O)C2C)CC1(C)OC (stereo not shown) [Example 71]
5 | 8 (≈ 8.66 µM) | 8 (≈ 8.66 µM) | 0.06 (≈ 0.0649 µM) | 1 (≈ 1.08 µM) | – | – | – | – | COc1ncccc1C(C)(C)N(C)CCN(C)C[C@@]1(O)[C@H](C)O[C@@H](O[C@H]2[C@H](C)[C@@H](O[C@@H]3O[C@H](C)C[C@H](N(C)C)[C@H]3O)[C@@](C)(O)C[C@@H](C)[C@H](O)[C@H](C)N3CC(C3)OC(=O)[C@@H]2C)C[C@@]1(C)OC [Example 221]
6 | 16 (≈ 16.7 µM) | 16 (≈ 16.7 µM) | 0.03 (≈ 0.0312 µM) | 1 (≈ 1.04 µM) | – | – | – | – | COc1ccccc1C(C)(C)N(C)Cc1cncn1CC1(O)C(C)OC(OC2C(C)C(=O)OC3CN(C3)C(C)C(O)C(C)CC(C)(OC)C(OC3OC(C)CC(N(C)C)C3O)C2C)CC1(C)OC (stereo not shown) [Example 204]
7 | 16 (≈ 16.9 µM) | 8 (≈ 8.43 µM) | 0.12 (≈ 0.126 µM) | 0.5 (≈ 0.527 µM) | – | – | – | – | COc1cccc2c1CCCC2N(C)CCN(C)CC1(O)C(C)OC(OC2C(C)C(=O)OC3CN(C3)C(C)C(O)C(C)CC(C)(OC)C(OC3OC(C)CC(N(C)C)C3O)C2C)CC1(C)OC (stereo not shown) [Example 133]

Second part, the compound before the results:

Row | Compound | MIC values (minimum inhibitory concentration) (H. influenzae Rd) [µg/mL] | MIC values (minimum inhibitory concentration) (H. influenzae ATCC 43095) [µg/mL] | MIC values (minimum inhibitory concentration) (S. pneumoniae ATCC 49619) [µg/mL] | MIC values (minimum inhibitory concentration) [1] [µg/mL] | MIC (H. influenzae Rd; Haemophilus influenzae, read-out: MIC values (minimum inhibitory concentration)) [µg/mL] | MIC (H. influenzae ATCC 43095; Haemophilus influenzae, ATCC43095, read-out: MIC values (minimum inhibitory concentration)) [µg/mL] | MIC (S. pneumoniae ATCC 49619; Streptococcus pneumoniae, ATCC49619, read-out: MIC values (minimum inhibitory concentration)) [µg/mL] | MIC ([1]; Streptococcus pneumoniae, ATCC700904, read-out: MIC values (minimum inhibitory concentration)) [µg/mL]
8 | CCN(CC(CO)NCC1(O)C(C)OC(OC2C(C)C(=O)OC3CN(C3)C(C)C(O)C(C)CC(C)(OC)C(OC3OC(C)CC(N(C)C)C3O)C2C)CC1(C)OC)C(C)c1ccccc1OC (stereo not shown) [Example 107] | 4 (≈ 4.2 µM) | 4 (≈ 4.2 µM) | 0.03 (≈ 0.0315 µM) | 0.06 (≈ 0.0629 µM) | – | – | – | –
9 | CCN(CCNC[C@@]1(O)[C@H](C)O[C@@H](O[C@H]2[C@H](C)[C@@H](O[C@@H]3O[C@H](C)C[C@H](N(C)C)[C@H]3O)[C@@](C)(OC)C[C@@H](C)C(=O)[C@H](C)N3CC(C3)OC(=O)[C@@H]2C)C[C@@]1(C)OC)[C@@H](C)c1ccccc1OC [Example 5] | 8 (≈ 8.68 µM) | 4 (≈ 4.34 µM) | 0.03 (≈ 0.0326 µM) | 0.5 (≈ 0.543 µM) | – | – | – | –
10 | CC[C@H]1OC(=O)[C@H](C)[C@@H](O[C@H]2C[C@@](C)(OC)[C@@H](O)[C@H](C)O2)[C@H](C)[C@@H](O[C@@H]2O[C@H](C)C[C@H](N(C)C)[C@H]2O)[C@](C)(OC)C[C@@H](C)C(=O)[C@H](C)[C@@H](O)[C@]1(C)O [Comparative agent 1, clarithromycin, reference compound] | – | – | – | – | 8 (≈ 10.7 µM) | 4 (≈ 5.35 µM) | 0.03 (≈ 0.0401 µM) | > 128
11 | CCN(CCNC[C@@]1(O)[C@H](C)O[C@@H](O[C@H]2[C@H](C)[C@@H](O[C@@H]3O[C@H](C)C[C@H](N(C)C)[C@H]3O)[C@@](C)(OC)C[C@@H](C)[C@H](O)[C@H](C)N3CC(C3)OC(=O)[C@@H]2C)C[C@@]1(C)OC)[C@@H](C)c1ccccc1OC [Example 3] | 4 (≈ 4.33 µM) | 4 (≈ 4.33 µM) | 0.03 (≈ 0.0325 µM) | 0.12 (≈ 0.13 µM) | – | – | – | –
12 | COC1(C)CC(C)C(O)C(C)N2CC(C2)OC(=O)C(C)C(OC2CC(C)(OC)C(O)(CN(C)CCN(C)C(C)c3ccccc3-c3ccccn3)C(C)O2)C(C)C1OC1OC(C)CC(N(C)C)C1O (stereo not shown) [Example 195] | 8 (≈ 8.24 µM) | 4 (≈ 4.12 µM) | 0.03 (≈ 0.0309 µM) | 0.06 (≈ 0.0618 µM) | – | – | – | –
13 | CCN(CCNC(=O)O[C@H]1[C@H](C)O[C@@H](O[C@H]2[C@H](C)[C@@H](O[C@@H]3O[C@H](C)C[C@H](N(C)C)[C@H]3O)[C@@](C)(OC)C[C@@H](C)[C@H](O)[C@H](C)N3CC(C3)OC(=O)[C@@H]2C)C[C@@]1(C)OC)[C@@H](C)c1ccccc1OC [Example 2] | 8 (≈ 8.54 µM) | 4 (≈ 4.27 µM) | 0.06 (≈ 0.064 µM) | 0.25 (≈ 0.267 µM) | – | – | – | –
14 | CCN(CCNC(=O)O[C@H]1[C@H](C)O[C@@H](O[C@H]2[C@H](C)[C@@H](O[C@@H]3O[C@H](C)C[C@H](N(C)C)[C@H]3O)[C@@](C)(O)C[C@@H](C)[C@H](O)[C@H](C)N3CC(C3)OC(=O)[C@@H]2C)C[C@@]1(C)OC)[C@@H](C)c1ccccc1OC [Example 12] | 8 (≈ 8.67 µM) | 8 (≈ 8.67 µM) | 0.03 (≈ 0.0325 µM) | 0.25 (≈ 0.271 µM) | – | – | – | –
15 | COC1(C)CC(C)C(O)C(C)N2CC(C2)OC(=O)C(C)C(OC2CC(C)(OC)C(O)(CNCCNC(C)(C)c3cccc4c3ccn4C)C(C)O2)C(C)C1OC1OC(C)CC(N(C)C)C1O (stereo not shown) [Example 70] | 4 (≈ 4.29 µM) | 4 (≈ 4.29 µM) | 0.12 (≈ 0.129 µM) | 0.25 (≈ 0.268 µM) | – | – | – | –
16 | CO[C@]1(C)C[C@H](O[C@H]2[C@H](C)[C@@H](O[C@@H]3O[C@H](C)C[C@H](N(C)C)[C@H]3O)[C@@](C)(OC)C[C@@H](C)[C@H](O)[C@H](C)N3CC(C3)OC(=O)[C@@H]2C)O[C@@H](C)[C@@H]1O (mixture of isomers) [Example 1] | 1 | 0.5 | 0.12 | >128 | – | – | – | –
